# Test results: patent US10226472B2, “Methods for the treatment of breast cancer” (SYNDAX PHARMACEUTICALS, INC., priority 2011, dated 2019)
# Where “and” joins values, the source holds several entries; their conditions need not be identical. Equal values may be shown once.
# Experiments:
# [1] = Phase 2 study of exemestane with and without entinostat: safety and tolerability (adverse events); type: in vivo, human
# Protocol: (§1) Secondary Outcome Measures are to compare objective response rate (ORR) and clinical benefit rate (CBR), and to evaluate the safety and tolerability of entinostat in combination with exemestane as measured by adverse events and laboratory safety parameters.
# Safety was assessed by adverse events (AEs), using the National Cancer Institute Common Terminology Criteria for Adverse Events, version 3.0, electrocardiograms, hematology and serum chemistries, ECOG performance status, and vital signs.
# Safety was assessed by an independent Data Safety Monitoring Board. All participating investigators and patients remain blinded to the assigned study treatment, as post-treatment follow-up for OS is continuing.
# [2] = Plasma entinostat concentration at acetylation sampling time points; type: in vivo, human; conditions: D8 and D15 time points used for acetylation evaluation; generally at or below the assay detection limit
# [3] = in vivo; cited from earlier work
# [4] = system: advanced BC demonstrating PD or recurrence following a NSAI; conditions: reported by Chia, et al; cited from earlier work
# [5] = system: locally recurrent or metastatic estrogen receptor-positive breast cancer; test: Phase 2 randomized, double-blind study of exemestane with and without entinostat (ENCORE-301): efficacy; type: in vivo, human; conditions: for median progression-free survival (PFS) / overall survival: intent-to-treat population; for overall survival: median follow-up of 18 months
# Description: as §1
# The primary endpoint of the study was progression-free survival. Other endpoints included objective response rate (ORR), clinical benefit rate (CBR), overall survival (OS) and safety and tolerability. All patients had received prior hormonal therapy (1 prior line 42%; >1 prior line 58%), and 33% had received prior chemotherapy in the advanced breast cancer setting.
# One hundred thirty (130) patients were enrolled between June 2008 and July 2010 at 38 sites in North America, Central Europe, and Russia. All patients provided written informed consent. […] Randomization was stratified by 1) prior NSAI treatment setting (adjuvant/metastatic); 2) metastases in bone only (yes/no); and 3) geographic region (North America/Central Europe and Russia). The randomization schedule was prepared and maintained by an independent statistical service provider. The protocol allowed for enrollment of approximately 20% of patients with non-measurable disease.
# Postmenopausal women with ER+BC currently experiencing disease relapse or progression while receiving a NSAI were eligible. Patients either had 1) relapsed after adjuvant NSAI treatment administered for at least 12 months or 2) progressed after NSAI treatment administered for at least 3 months in the metastatic/advanced setting. One prior line of chemotherapy in the metastatic setting was permitted if given before the most recent NSAI. Within 4 weeks prior to starting study treatment, patients must have had at least 1 measurable lesion (≥20 mm by conventional techniques or ≥10 mm by spiral computed tomography [CT] scan), or with bone only metastases, a positive bone scan confirmed by magnetic resonance imaging (MRI) or positron emission tomography (PET)-CT. Additional requirements included, an Eastern Cooperative Oncology Group (ECOG) performance status of 0 or 1; adequate hematologic parameters; and creatinine, aspartate transaminase, and alanine transaminase <2.5 times the upper limit of normal. Patients with prior fulvestrant, exemestane, entinostat, or any other HDACi were excluded.
# Treatment cycles were 28 days in length. Patients were evaluated on Day (D) 1, D8, and D15 during Cycle (C) 1 and on D1 of all subsequent cycles. Peripheral blood samples were taken in a subset of patients pre- and post-dosing on D1, 8, or 15 of C1. Patient/disease response assessments were performed on D22 of C2 and every other cycle thereafter. After completing study treatment, patients entered into post-treatment follow-up for evaluation of overall survival and subsequent therapies. Patients were to be followed until death, withdrawal of consent, or study closure by the sponsor.
# Disease was evaluated using the Response Evaluation Criteria in Solid Tumors (RECIST), version 1.0. Contrast-enhanced CT scans were obtained at baseline, every other cycle for 12 months, and every third cycle thereafter. PD also was assessed by bone scan and clinical symptoms, as appropriate.
# The primary endpoint was PFS, defined as the number of months from randomization to documented PD or death due to any cause. Secondary endpoints included overall response (OR; complete response [CR]+partial response [PR]) and clinical benefit rates (CBR; OR+stable disease [SD] for ≥6 months). Overall Survival (OS) was an exploratory endpoint.
# PFS was summarized descriptively using the Kaplan-Meier method and reported based on 116 progression events as of March 2012. The HR was estimated from a stratified Cox proportional hazards model, with placebo serving as the reference in the calculation. The primary inferential comparison between groups was made using the log-rank test, stratified by the 3 randomization factors. For patients who died before documentation of PD, death date was used as the PD date. […]
# [6] = system: locally recurrent or metastatic estrogen receptor-positive breast cancer; test: PFS by change in protein lysine acetylation in PBMCs (biomarker subset of the Phase 2 study); type: in vivo, human
# Protocol: The primary endpoint was progression-free survival (PFS).
# Protein lysine acetylation was measured by multi-parameter flow cytometry in peripheral blood mononuclear cells (PBMCs; CD19+ B cells, CD3+ T cells, and CD14+ monocytes) collected pre and post-treatment on D1, D8, and D15 of C1 to explore the association with PFS.
# The association of PFS with degree of change in protein lysine acetylation from baseline in PBMCs was evaluated as an exploratory, post-hoc analysis in a subset of patients using the Cox proportional hazard model. Analyses in all 3 cell types (B cells, T cells, monocytes) was performed for consistency of results and to aid in selection of optimal cell type for analysis in future studies.
# Baseline characteristics were consistent with the overall study population (FIG. 17). Hyperacetylation in EE patients was associated with a prolonged median PFS consistent across all cell types tested (FIG. 18): 8.5 versus 2.7 months for low acetylators (HR=0.32, 95% CI 0.13, 0.79) (B cells); 6.6 versus 3.6 months for low acetylators (HR=0.44, 95% CI 0.18, 1.08) (T cells); and 6.2 versus 3.6 months for low acetylators (HR=0.50, 95% CI 0.21, 1.20) (monocytes). […] The percent change in acetylation from baseline was determined based upon the last sample obtained. The degree of change in acetylation was then dichotomized into “high” (i.e., above the median or “hyperacetylators”) and “low” (i.e., below the median) subgroups using a non-model based approach: patients with a change from baseline that was greater than or equal to the 50th percentile (median) of the overall distribution were assigned to the “high” group; patients with a change less than the 50th percentile were assigned to the “low” group. The cut-point for the analysis (50th percentile) was determined a priori, but was not based on findings from earlier studies.
# Percent change is calculated and related to progression free survival (PFS) outcome data. Hyperacetylation independent of treatment arm is defined as a percent change increase above the calculated median percent change for each cell type.
# [7] = listed as exemestane plus placebo
compound,measurement,setting,value
"Nc1ccccc1NC(=O)c1ccc(CNC(=O)OCc2cccnc2)cc1 [entinostat, N-(2-aminophenyl)-4-[N-(pyridine-3-yl)methoxycarbonylamino-methyl]-benzamide]",neutropenia cases attributed to entinostat,"[1]; EE group, 13 of 19 cases",68%
same,tolerability / safety profile,[1]; Phase 2 clinical trial,acceptable safety profile
same,plasma entinostat concentration,[2],< 0.5 ng/mL
same,half-life,[3],about 100 hours
"C=C1C[C@@H]2[C@H](CC[C@]3(C)C(=O)CC[C@@H]23)[C@@]2(C)C=CC(=O)C=C12 [EP, exemestane]",median PFS,[4],3.7 months
same,serious AE rate,[1]; Example 1a,12%
same,incidence of serious AEs,"[1]; Example 1c, Safety Population",12%
same,AEs leading to dose modification,[1]; Safety Population,6%
same,AEs leading to study discontinuation,[1]; Safety Population,2%
same,G4 AEs,[1]; Safety Population,3%
same,Grade (G) 3 AEs,[1]; Safety Population,23%
same,rate of AEs,"[1]; Safety Population, irrespective of study drug relationship",85%
same,median overall survival,[5]; 23-month follow-up,19.8 months
same,incidence of death,[5]; Example 1c analysis,65%
same,median OS,"[5]; Example 1c analysis, ITT population",19.8 months
same,clinical benefit rate (CBR; OR+SD for >=6 months),[5]; ITT population,25.8%
same,overall response (OR; CR+PR),"[5]; ITT population, RECIST 1.0",4.6%
same,median progression-free survival (PFS),[5],2.3 months and 2.27 months
same,median progression-free survival (PFS),[5]; listed as exemestane alone,2.3 months
same,median progression-free survival (PFS),[5]; [7],2.27 months and 2.3 months
same,median progression-free survival (PFS),[5]; listed as exemestane+placebo,2.3 months
same,overall survival,[5],20.3 months
same,overall survival,[5]; [7],20.33 months
same,"median PFS, high acetylators (hyperacetylation)",[6]; B cells,1.9 months and 1.92 months
same,"median PFS, low acetylators",[6]; B cells,1.8 months
same,"median PFS, high acetylators (hyperacetylation)",[6]; T cells,1.77 months
same,"median PFS, high acetylators (hyperacetylation)",[6]; monocytes,1.87 months
